# Read-outs that look alike come from different tables or passages of the source. Marks after values point to notes of the source that are not given here.
# Legend:
# [1] = Transfer of organic compounds between two MeCN phases through an FC-72 phase (U-tube); type: physicochemical; conditions: two MeCN phases through FC-72, 23° C., 3 days
# [2] = between FC-72 and MeOH
# [3] = Selective transport of a fluorous-tagged component of a mixture through FC-72 between two acetonitrile phases; type: physicochemical
# [4] = U-tube transport of guest molecules from aqueous S-phase through FC-72 F-phase to basic aqueous P-phase, with or without fluorous transport agent 3b; type: physicochemical; conditions: transport agent 3b about 1 mM in FC-72; S-phase water, P-phase pH 11.5 phosphate buffer; ambient temperature
# Protocol: In an illustrative example, several transport experiments were carried out with a variety of guest molecules and fluorous transport agent 3b. The F-phase included transport agent 3b, at about 1 mM in the fluorous solvent FC-72. This F-phase was contacted in a U-tube with a first phase containing various organic compounds in water and a second aqueous phase containing hydroxide ion (pH 11.5 phosphate buffer). After various periods of time at ambient temperature, a portion of the more basic, P-phase was removed and subjected to quantitative analysis by UV absorbance spectrophotometry. The measured absorbances were converted to the concentration of each organic compound by the use of a calibration curve. The organic solutes tested were phenobarbital, secobarbital, mephobarbital, thiopental, 2-ethyl, 2-phenylmalonamide, and p-toluenesulfonate. […] The amount of each compound transported (as a fraction of the amount in the S-phase) is plotted versus time. The data points represent behavior of mephobarbital (represented by solid squares), secobarbital (represented by open squares), thiopental (represented by triangles), phenobarbital (represented by diamonds), malonamide and p-toluenesulfonate (both represented by open circles). Each of the barbiturates was transported through the fluorous phase in the presence of transport agent 3b. […]
# [5] = Transfer of 2a between two organic phases through an FC-72 phase (U-tube); type: physicochemical; conditions: FC-72 stirred 23° C., 3 days
# Protocol: 2-(2-Naphtylethanol) 2a (10 mg) was dissolved in an organic solvent (1 ml) and the mixture was put into one side (side A) of U-tube 10 of FIG. 1, in which FC-72 (10 ml) was placed. The other organic solvent was put into the other side (side B) of U-tube 10 and the center phase (FC-72) was stirred (via, for example, magnetic stirring element 130) at 23° C. for 3 days without mixing the interfaces between the organic and FC-72 layers. The weights of each organic phase were measured after evaporation.
compound,measurement,setting,value
CC(=O)Cc1ccc2ccccc2c1 [2-naphthylacetone],ratio (A/B),[1],91/9
"CC(C)[Si](CCC(F)(F)C(F)(F)C(F)(F)C(F)(F)C(F)(F)C(F)(F)C(F)(F)C(F)(F)F)(OCCc1ccc2ccccc2c1)C(C)C [1a, diisopropyl-1H,1H,2H,2H-perfluorodecanylsilyl 2-naphthylethyl ether]",partition coefficient,"FC-72 / CH2Cl2, 23 C",0.14
same,partition coefficient,"FC-72 / DMF, 23 C",0.38
same,partition coefficient,"FC-72 / EtOH, 23 C",0.91
same,partition coefficient,"FC-72 / MeCN, 23 C",0.74
same,partition coefficient,"FC-72 / MeOH, 23 C",0.92
same,partition coefficient,"FC-72 / THF, 23 C",0.04
same,Kp (partition coefficient),[2],0.92
"CC(C)[Si](CCC(F)(F)C(F)(F)C(F)(F)C(F)(F)C(F)(F)C(F)(F)C(F)(F)C(F)(F)F)(OCC=Cc1ccccc1)C(C)C [1g, (3,3,4,4,5,5,5,6,6,7,7,8,8,9,9,10,10,10,10-heptadecafluorodecyl)-diisopropyl(3-phenyl-allyloxy)silane]",Kp (partition coefficient),[2],1.3
same,Mass of the residue (P-phase),"[3]; P-phase removed at 3 h, 1/1 mixture of 2a and 1g in acetonitrile S-phase",4.5 mg
same,Mass of the residue (P-phase),"[3]; P-phase removed at 7 h, fresh acetonitrile after each removal",6 mg
same,Mass of the residue (P-phase),"[3]; P-phase removed at 24 h, fresh acetonitrile after each removal",7 mg
CCCCCCCCCCCCO [dodecanol],ratio (A/B),[1],96/4
p-toluenesulfonate,transport through the fluorous phase to the P-phase,[4],no transport
N#CCc1ccc2ccccc2c1 [2-naphthylacetonitrile],ratio (A/B),[1],99/1
CC(O)c1ccc2ccccc2c1 (stereo not shown) [1-(2-naphthyl)ethanol],ratio (A/B),[1],96/4
"CC(C)[Si](CCC(F)(F)C(F)(F)C(F)(F)C(F)(F)C(F)(F)C(F)(F)C(F)(F)C(F)(F)F)(O[C@@H](C)c1ccc2ccccc2c1)C(C)C [1f, diisopropyl-1H,1H,2H,2H-perfluorodecanylsilyl (S)-(−)-1-(2-naphthyl)ethyl ether]",Kp (partition coefficient),[2],1.5
N#CCC#N [malononitrile],ratio (A/B),[1],>99/1
"OCCc1ccc2ccccc2c1 [2a, 2-(2-naphthyl)ethanol]",ratio of 2a (A/B),"[5]; side A MeCN, side B MeCN",99/1
same,ratio of 2a (A/B),"[5]; side A MeCN, side B MeOH",>99/1
same,ratio of 2a (A/B),"[5]; side A MeCN, side B THF",>99/1
same,ratio of 2a (A/B),"[5]; side A MeOH, side B MeCN",99/1
same,ratio of 2a (A/B),"[5]; side A MeOH, side B MeOH",99/1
same,ratio of 2a (A/B),"[5]; side A MeOH, side B THF",96/4
same,ratio of 2a (A/B),"[5]; side A THF, side B MeOH",97/3
same,ratio of 2a (A/B),"[5]; side A THF, side B THF",90/10
same,presence in P-phase by TLC or 1H NMR,"[3]; after 1d, 1/1 mixture with 1g in acetonitrile S-phase",not detected
same,ratio (A/B),[1],99/1
"CC(C)[Si](CCC(F)(F)C(F)(F)C(F)(F)C(F)(F)C(F)(F)C(F)(F)F)(OCCc1ccc2ccccc2c1)C(C)C [1c, Diisopropyl-1H,1H,2H,2H-perfluorooctanylsilyl 2-naphthylethyl ether]",Kp (partition coefficient),[2],0.39
O=C(O)Cc1ccc2ccccc2c1 [2-naphthylacetic acid],ratio (A/B),[1],>99/1
CC(N)c1cccc2ccccc12 (stereo not shown) [1-(1-naphthyl)ethylamine],ratio (A/B),[1],82/18
CCc1ccc2ccccc2c1 [2-ethylnaphthalene],ratio (A/B),[1],66/33^a
CC(=O)Oc1ccc2ccccc2c1 [2-naphthyl acetate],ratio (A/B),[1],94/6
OCC=Cc1ccccc1 [cinnamyl alcohol],ratio (A/B),[1],99/1

# Reference: patent US6734318B2, “Fluorous triphase and other multiphase systems” (University of Pittsburgh, priority 2001, dated 2004)
